The source of these data is EP0847397B1, “WATER-SOLUBLE C-RING ANALOGUES OF 20 (S)-CAMPTOTHECIN” (DR. REDDY'S RESEARCH FOUNDATION, priority 1996, dated 1997).

Converted amounts (≈) assume the structure as drawn. Some results are limits rather than exact numbers.

Data set [1] in a line: MTD in Swiss albino mice (single dose). The settings on record: mouse, in vivo, 14 days observation. As to the method:
1. MTD in Swiss albino mice:
Each Swiss Albino mouse is injected with a single does of the test compound on a day designated as Day 1: Doses that were tested are 400, 200, 100, 50, 25, 12.5, 8.3, 6.25 and 3.13 mg/kg body weight. […] (As per the protocol followed by the U.S. National Cancer Institute)

The nature of data set [2]: Solubility by HPLC method. It counts as physicochemical. The note with it: aqueous buffer, 0.1M sodium acetate buffer pH 5.0, 24 hours, room temperature. As to the method: 4. Solubility by HPLC method:
Excess of compound was soaked in 0.5 ml of 0.1M sodium acetate buffer at pH 5.0 for 24 hours at room temperature. The solution was filtered through 0.45 micron PVDF syringe filter (Gelman Sciences). The filtrate was injected into HPLC at different volumes (10 & 20 µl). Chromatograms were recorded. Responses recorded were extrapolated from the calibration curve and the solubility of the compound was calculated. (J. Med. Chem., 1995; 38: 400)

The nature of data set [3]: Solubility by routine method. The class given is physicochemical. The note with it: deionized water, 37°C. As to the method: 5. Solubility by routine method:
Compound was suspended in 5 ml of deionized water and heated to 37°C. for 10 min. Then, the solution was filtered and the filtrate was evaporated to drying using methanol and the solid residue was weighed.

A short description of a further data set: Pharmacokinetics at MTD. It counts as in vivo, Swiss albino mice. The note with it: mouse, ip, intraperitoneal, plasma; for AUC(0-t): DMSO:water (50:50), read-out: AUC0-1. As to the method: 3. Pharmacokinetics at MTD:
All studies were carried out in Swiss albino mice in the weight range 35-40 g. The animals were fasted overnight prior to dosage of the drug and were fed 3 hours after dosing. The animals were dosed intraperitonially as a solution in DMSO:water (50:50; v/v). Blood samples were drawn from orbital sinus at 1, 2, 4, 6 and 8 hours after administration of the dose into heparinized tubes, centrifuged at 13000 RPM for 10 min. Plasma samples were separated and analyzed by HPLC. To 50 µl of the sample, 100 µl of chilled acidified methanol was added and mixed to precipitate proteins. The sample was centrifuged at 13,000 RPM for 10 min. 100 µl of supernatant was made up to 200 µl with methanol:water (50:50; v/v) and 100 µl was injected on HPLC. Peak area of the drug was used for quantification. Calibration, control and recovery samples were prepared by spiking 50 µl of blank plasma with known amounts of the drug and processed in the same manner as the samples. (J. Natl. Cancer Inst., 1996; 88:817-824).

In the next data set the test system is ACHN. As to the kind of experiment: In vitro activity after 1 hour exposure (Sulforhodamine B). The note with it: Homo sapiens, 1 hour exposure then 48 hours drug-free. The class given is cell-based. As to the method:
(§1) 6. In vitro activity after 1 hour exposure:
(§2) Grow the cells in 15 ml of Complete Medium (RPM1-1640 with 10% Fetal bovine serum and 0.2% NaHCO3) for 3-5 days to obtain a cell number of 10^6 cells/flask. The medium is removed and the attached cells are washed with Phosphate Buffered Saline (PBS). 1 ml of 0.1% Trypsin-EDTA is added and incubated for 5 min at 37°C. Tap the flasks gently and add 5 ml of complete medium. Remove cell suspension and centrifuge at 2000 rpm for 5 min. Discard the supernatant and suspend the pellet in 5 ml of complete medium. Count the cell number in a haemocytometer. Dilute the cell suspension to 10,000 cells/100 µl in complete medium. Plate out 100 µl of cell suspension in each of 96 well microtitre plate and incubate for 24 hrs at 37°C. and 5% CO2. Terminate the reference blank (plated out separately) with 25 µl of 50% cold Trichloroacetic acid (TCA). Incubate for 1 hour at 4°C. Wash the plate (five times) with deionized water. Air dry and preserve the plate at 4°C. for determination of T0 value. Prepare suitable dilution of the test compound in complete medium and add 100 µl to each well to maintain the final concentration ranging between 10^-4M and 10^-8M. Incubate for 1 hr at 37°C. and 5% CO2. Centrifuge the microtitre plate at 1000 rpm for 5 min. Remove the supernatant. Wash the cells twice with 100 µl of PBS to remove the traces of test compound. Add 200 µl of complete medium to each well and incubate for 48 hours at 37°C. and 5% CO2. Terminate the cell growth with the addition of 50 µl of 50% cold TCA. Incubate the plate for 1 hr at 4°C. Wash the plates with deionized water (five times) and air dry. Add 100 µl of Sulforhodamine B solution (0.4% in 1% acetic acid) to each well. Keep at room temperature for 15 minutes. Wash (five times) with 1% acetic acid and air dry. Add 100 µl of 10mM Trizma base (Sigma), shake gently on plate shaker for 15 minutes and read the optical density at 490 nm in Spectrophotometric plate reader. (as per the protocol followed by the U.S. National Cancer Institute.

The subject of another data set is DU-145. The data set is described as above. It counts as cell-based. The note with it: Homo sapiens; DU-145, 1 hour exposure then 48 hours drug-free. As to the method: as §1, §2
For the next data set, the system named is HOP-62. The data set is described as above. The class given is cell-based. The note with it: Homo sapiens; HOP-62, 1 hour exposure then 48 hours drug-free. As to the method:
as §1, §2

A further data set relates to MCF-7/ADR. The data set is described as above. It counts as cell-based. The settings on record: Homo sapiens, NCI/ADR-RES, 1 hour exposure then 48 hours drug-free. As to the method:
as §1, §2

For another data set, the system named is OVCAR-8. The description is as above. The class given is cell-based. The note with it: Homo sapiens; OVCAR-8, 1 hour exposure then 48 hours drug-free. As to the method:
as §1, §2

In another data set the test system is SF-268. The description is as above. The class given is cell-based. The settings on record: Homo sapiens. As to the method:
as §1, §2

The subject of another data set is UACC-62. The description is as above. It counts as cell-based. The note with it: Homo sapiens; UACC-62, 1 hour exposure then 48 hours drug-free. As to the method:
as §1, §2

Another data set relates to HT 29. In words: NCI in vitro 60 human tumor cell line assay. It counts as cell-based. The note with it: Homo sapiens, HT-29, 48 h, read-out: Total Growth Inhibition (TGI).
For a further data set, the system named is H 460. In words: NCI in vitro 60 human tumor cell line assay. The settings on record: Homo sapiens, NCI-H460, 48 h, read-out: Total Growth Inhibition (TGI). The class given is cell-based.
Another data set relates to HCC 2998. In words: NCI in vitro 60 human tumor cell line assay. It counts as cell-based. The settings on record: Homo sapiens, HCC 2998, 48 h, read-out: Total Growth Inhibition (TGI).
Another data set deals with HCT 15. In words: NCI in vitro 60 human tumor cell line assay. It counts as cell-based. The note with it: HCT-15, 48 h, read-out: Total Growth Inhibition (TGI).
A further data set has as its system OVCAR 8. In words: NCI in vitro 60 human tumor cell line assay. The class given is cell-based. The settings on record: OVCAR-8, 48 h, read-out: Total Growth Inhibition (TGI).

Description for H 460: (§3) Each test compound was screened against a battery of 60 human cell lines obtained from eight organs. In a typical procedure, the cell suspensions that were diluted according to the particular cell type and the expected target cell density (5000-40,000 cells per well based on cell growth characteristics) were added into 96-well microtiter plates. Inoculates were allowed a preincubation period of 24h at 37°C. for stabilization. Dilutions at twice the intended test concentrations were added at time zero in 100-µl aliquots to microtiter plate wells. Usually test compounds were evaluated at five 10-fold dilutions. The highest well concentration used in the test is 10^-4M. The cells are then incubated in the presence of drug (the test compound) for further 48h in 5% CO2 atmosphere and 100% humidity. At the end of this time, the adherent cells are fixed to the plate by means of trichloroacetic acid, and after a number of washes, the cell layer is treated with the protein stain Sulforhodamine B. The optical density which is proportional to protein mass, is then read by automated spectrophotometric plate readers at a wavelength of 515 nm. Readings are transferred to a microcomputer and final reports are generated using especially developed software.
Description for HCT 15: as §3
Description for HT 29: as §3
Description for OVCAR 8: Each test compound was screened against a battery of 60 human cell lines obtained from eight organs. In a typical procedure, the cell suspensions that were diluted according to the particular cell type and the expected target cell density (5000-40,000 cells per well based on cell growth characteristics) were added into 96-well microtiter plates. Inoculates were allowed a preincubation period of 24h at 37°C. for stabilization. Dilutions at twice the intended test concentrations were added at time zero in 100-µl aliquots to microtiter plate wells. Usually test compounds were evaluated at five 10-fold dilutions. The highest well concentration used in the test is 10^-4M. The cells are then incubated in the presence of drug (the test compound) for further 48h in 5% CO2 atmosphere and 100% humidity. At the end of this time, the adherent cells are fixed to the plate by means of trichloroacetic acid, and after a number of washes, the cell layer is treated with the protein stain Sulforhodamine B. The optical density which is proportional to protein mass, is then read by automated spectrophotometric plate readers at a wavelength of 515 nm.

As usually defined, the solubility is the concentration that dissolves in the medium under given conditions. Read a high solubility as a readily soluble substance. One may read the Cmax as the highest concentration seen after dosing. For orientation: Tmax means the time from dosing to the highest level. For orientation: half-life means how long it takes for the measured level to halve. In general, GI50 refers to the concentration that inhibits growth by half. A high value points to lower sensitivity of the cells. As to `CC[C@@]1(O)C(=O)OCc2c1cc1n(c2=O)C(OCCO)c2cc3ccccc3nc2-1` (some centres unmarked) [Example 26, 5-(2'-Hydroxyethoxy)camptothecin], the MTD at 336 h in data set [1] (intravenous) is 25 to 50 mg/kg; in data set [1] (ip, intraperitoneal), 200 mg/kg. Further, in data set [2], the solubility at 24 h came to 800 µg/mL (≈ 1.96 mM). The compound further returned a solubility at 10 min in data set [3] of 6000 µg/mL (≈ 14.7 mM). The AUC(0-t) in “Pharmacokinetics at MTD” amounted to 562 ± 41.8 µM·h. In the data set “Pharmacokinetics at MTD”, this compound displayed a Cmax of 264 ± 21.9 µM. The time of peak concentration (Tmax) in the data set “Pharmacokinetics at MTD” was 1 h. Also, in the data set “Pharmacokinetics at MTD”, the half-life was 1.84 ± 0.3 h. The compound also had a k el in “Pharmacokinetics at MTD” of 0.000106 s⁻¹. Also, the GI50 with ACHN is over 100 µM; in the data set on DU-145 it was 50 µM; with HOP-62 it was over 100 µM; in the data set on MCF-7/ADR it was over 100 µM; in the data set on OVCAR-8 it was over 100 µM; in the data set on SF-268, over 100 µM. Moreover, it took 0.075 µM to inhibit growth in the data set on UACC-62 by half (GI50). Besides, the IC (TGI) amounted to 46 µM with HT 29; 1 µM in the data set on H 460; 10.5 µM with HCC 2998; 36.3 µM in the data set on HCT 15; 13.4 µM in the data set on OVCAR 8.
With `CC[C@@]1(O)C(=O)OCc2c1cc1n(c2=O)C(OCC(F)(F)F)c2cc3cc(O)ccc3nc2-1` (some centres unmarked) [Example 27, 10-Hydroxy-5-trifluoroethoxycamptothecin], the MTD at 336 h came out at 200 mg/kg in data set [1] (intravenous) and 400 mg/kg in data set [1] (ip, intraperitoneal). This compound came in with a solubility at 24 h in data set [2] of 500 µg/mL (≈ 1.08 mM). The solubility at 10 min in data set [3] is 2000 to 3000 µg/mL (≈ 4.33 to 6.49 mM). In “Pharmacokinetics at MTD”, the AUC(0-t) was determined as 23.1 ± 2.7 µM·h. The same compound showed a Cmax in “Pharmacokinetics at MTD” of 7.4 ± 0.8 µM. Besides, the time to peak (Tmax) in “Pharmacokinetics at MTD” was 1.33 ± 0.6 h. In the data set “Pharmacokinetics at MTD”, this compound showed a half-life of 2.38 ± 0.2 h. Moreover, the k el in the data set “Pharmacokinetics at MTD” was 8.06e-05 s⁻¹. Moreover, the 50% growth inhibitory concentration (GI50) was 8 µM in the data set with ACHN; 0.35 µM in the data set with DU-145; 2 µM with HOP-62; 60 µM with MCF-7/ADR; 75 µM in the data set on OVCAR-8; over 100 µM in the data set on SF-268. The GI50 in the data set with UACC-62 is 9 µM. In addition, the IC (TGI) is 2.41 µM with HT 29, 5.09 µM with H 460, 7.67 µM in the data set on HCC 2998 and 20 µM in the data set with HCT 15.
